Assay results reported in article PMC8911579, “(−)-Naringenin 4′,7-dimethyl Ether Isolated from Nardostachys jatamansi Relieves Pain through Inhibition of Multiple Channels” (Molecules, 2022).

What was measured:
[1] = test system: formalin-induced inflammatory pain; test: formalin-induced mouse inflammatory pain model; assay type: in vivo, ICR mice; conditions: phase I and phase II
Protocol: The formalin test is a classical inflammatory pain model which represents somatic pain. Intraplantar injection of formalin results in a typical two-stage nociceptive behavior, which is characterized by licking and biting of the injected paw. The first phase (0~10 min) mainly reflects nociceptive pain, while the second phase (11~60 min) represents the inflammatory responses. In our study, we tested the effects of (−)-NRG-DM on formalin-induced inflammatory pain in mice. (−)-NRG-DM at 30 mg/kg and 50 mg/kg body weight were individually intraperitoneally administrated 30 min before injection of 1% formalin solution.
Adult male ICR mice weighing 20 ± 2 g were randomly divided into 3 groups (n = 10 for each group) and acclimatized in a transparent observation chamber for at least 30 min before the experiment. Mice were intraperitoneally administrated with vehicle or (−)-NRG-DM (30 or 50 mg/kg) 30 min prior to formalin injection. Then, 1% formalin solution (20 μL per site) was subcutaneously injected into the plantar of the left hind paw to induce acute inflammatory pain. Immediately, mice were put back into the observation chambers. Nociception caused by formalin was assessed by scoring painful behaviors and licking time over a period of 60 min. […]

[2] = test system: mustard oil-induced colorectal pain; test: mustard oil-induced mouse colorectal pain model; assay type: in vivo, C57BL/6 mice; conditions: 30 min observation
Protocol: The dose-dependent relief of somatic pain in the formalin model prompted us to ask whether it could attenuate the visceral pain. Thereby, we constructed the mustard oil-induced mouse colorectal pain model as previously described. […] As those observed in intraplantar formalin-induced pain, (−)-NRG-DM dose dependently relieved intracolonic mustard oil-caused writhing (Figure 3A). After intraperitoneal application of 30 mg/kg and 50 mg/kg (−)-NRG-DM, the writhing number reduced by approximately 60% and 80%, respectively (Figure 3B).
Male C57BL/6 mice, weighing 23~25 g, were randomly assigned into 3 groups (n = 10 for each group) and placed in a transparent observation chamber for at least 20 min prior to the experiment. Mice were intraperitoneally administrated with vehicle or (−)-NRG-DM (30 or 50 mg/kg) 30 min before the injection of diluted mustard. Subsequently, 50 µL of diluted mustard oil solution (0.75% in 70% ethanol) was intracolonically administrated and the number of pain responses was counted for 30 min. In the present study, postures defined as pain-related behaviors were in agreement with previous descriptions: (1) licking of the abdomen, (2) stretching the abdomen, (3) squashing of lower abdomen against the floor, (4) abdominal wall retractions.

[3] = test system: transient outward potassium currents (IA) in DRG neurons; test: whole-cell patch-clamp, transient outward potassium currents in DRG neurons; assay type: cell-based; conditions: Mus musculus, DRG neuron; n = 5
From the text: The currents in mouse DRG neurons can be separated into IA and IK. They could be distinguished by applying voltage steps from a holding potential of −50 mV, at which IA was almost completely inactivated, while IK remained unchanged. Thereby, IA could be separated by subtracting IK from the total potassium currents. According to these electrophysiological characteristics, the effects of (−)-NRG-DM on potassium currents were examined (Figure 5A). […] Additionally, the effects of (−)-NRG-DM on the kinetics of the Kv channels were further characterized. The Kv currents were elicited by multiple 1500 ms depolarization pulses ranging from −80 mV to +90 mV in 10 mV increments from a holding potential of −80 mV. […] The values of V1/2 in the absence and presence of 10 µM (−)-NRG-DM were −6.43 ± 1.21 mV and −8.08 ± 2.02 mV, respectively (Figure 5D).
Dorsal root ganglia (DRG) were dissected from male C57BL/6 mice aged 4~6 weeks. The ganglia were first cut into small pieces and then digested at 37 °C for 20 min in DMEM containing 1 mg/mL collagenase type I and 0.25 mg/mL trypsin (Sigma-Aldrich). Subsequently, the digested small fragments were terminated and resuspended with DMEM/F12 growth medium (Gibco) supplemented with 10% fetal bovine serum (FBS) (Gibco). […]

[4] = pharmacokinetic study, plasma concentration after intraperitoneal administration; assay type: in vivo, ICR mice
Protocol: The pharmacokinetic study was performed in male ICR mice weighted 20 ± 2 g. The mice were fasted for 12 h before intraperitoneal administration of (−)-NRG-DM at 50 mg/kg. Blood samples (0.5 mL) were collected at 0.5, 1, and 1.5 h from the abdominal aorta into the heparinized tubes after drug administration. The plasma was separated by centrifugation (11,000 rpm for 5 min) and then stored at −80 °C until analyzed. Plasma samples (20 μL) were treated with the addition of the internal standard solution (20 μL) and acetonitrile (300 μL), then vortexed for 15 min (1000 rpm, RT), and centrifuged of 15 min (3700 rpm, 4 °C). The supernatants were collected for analysis using LC−MS/MS. The data were processed using Analyst software version 1.6.3 (Sciex, ON, Canada).

TRPA1 channels = target: T1, TRPA1 channels (Homo sapiens, UniProt O75762); test: whole-cell patch-clamp, TRPA1 stably expressed in HEK293 cells; assay type: cell-based; conditions: 30 µM
T1 construct: expressed in transfected cells

Nav1.7 channel = Nav1.7 channel (Homo sapiens, UniProt Q15858); test: whole-cell patch-clamp, Nav1.7 stably expressed in HEK293 cells
Nav1.7 channel, sequence (Q15858 whole entry): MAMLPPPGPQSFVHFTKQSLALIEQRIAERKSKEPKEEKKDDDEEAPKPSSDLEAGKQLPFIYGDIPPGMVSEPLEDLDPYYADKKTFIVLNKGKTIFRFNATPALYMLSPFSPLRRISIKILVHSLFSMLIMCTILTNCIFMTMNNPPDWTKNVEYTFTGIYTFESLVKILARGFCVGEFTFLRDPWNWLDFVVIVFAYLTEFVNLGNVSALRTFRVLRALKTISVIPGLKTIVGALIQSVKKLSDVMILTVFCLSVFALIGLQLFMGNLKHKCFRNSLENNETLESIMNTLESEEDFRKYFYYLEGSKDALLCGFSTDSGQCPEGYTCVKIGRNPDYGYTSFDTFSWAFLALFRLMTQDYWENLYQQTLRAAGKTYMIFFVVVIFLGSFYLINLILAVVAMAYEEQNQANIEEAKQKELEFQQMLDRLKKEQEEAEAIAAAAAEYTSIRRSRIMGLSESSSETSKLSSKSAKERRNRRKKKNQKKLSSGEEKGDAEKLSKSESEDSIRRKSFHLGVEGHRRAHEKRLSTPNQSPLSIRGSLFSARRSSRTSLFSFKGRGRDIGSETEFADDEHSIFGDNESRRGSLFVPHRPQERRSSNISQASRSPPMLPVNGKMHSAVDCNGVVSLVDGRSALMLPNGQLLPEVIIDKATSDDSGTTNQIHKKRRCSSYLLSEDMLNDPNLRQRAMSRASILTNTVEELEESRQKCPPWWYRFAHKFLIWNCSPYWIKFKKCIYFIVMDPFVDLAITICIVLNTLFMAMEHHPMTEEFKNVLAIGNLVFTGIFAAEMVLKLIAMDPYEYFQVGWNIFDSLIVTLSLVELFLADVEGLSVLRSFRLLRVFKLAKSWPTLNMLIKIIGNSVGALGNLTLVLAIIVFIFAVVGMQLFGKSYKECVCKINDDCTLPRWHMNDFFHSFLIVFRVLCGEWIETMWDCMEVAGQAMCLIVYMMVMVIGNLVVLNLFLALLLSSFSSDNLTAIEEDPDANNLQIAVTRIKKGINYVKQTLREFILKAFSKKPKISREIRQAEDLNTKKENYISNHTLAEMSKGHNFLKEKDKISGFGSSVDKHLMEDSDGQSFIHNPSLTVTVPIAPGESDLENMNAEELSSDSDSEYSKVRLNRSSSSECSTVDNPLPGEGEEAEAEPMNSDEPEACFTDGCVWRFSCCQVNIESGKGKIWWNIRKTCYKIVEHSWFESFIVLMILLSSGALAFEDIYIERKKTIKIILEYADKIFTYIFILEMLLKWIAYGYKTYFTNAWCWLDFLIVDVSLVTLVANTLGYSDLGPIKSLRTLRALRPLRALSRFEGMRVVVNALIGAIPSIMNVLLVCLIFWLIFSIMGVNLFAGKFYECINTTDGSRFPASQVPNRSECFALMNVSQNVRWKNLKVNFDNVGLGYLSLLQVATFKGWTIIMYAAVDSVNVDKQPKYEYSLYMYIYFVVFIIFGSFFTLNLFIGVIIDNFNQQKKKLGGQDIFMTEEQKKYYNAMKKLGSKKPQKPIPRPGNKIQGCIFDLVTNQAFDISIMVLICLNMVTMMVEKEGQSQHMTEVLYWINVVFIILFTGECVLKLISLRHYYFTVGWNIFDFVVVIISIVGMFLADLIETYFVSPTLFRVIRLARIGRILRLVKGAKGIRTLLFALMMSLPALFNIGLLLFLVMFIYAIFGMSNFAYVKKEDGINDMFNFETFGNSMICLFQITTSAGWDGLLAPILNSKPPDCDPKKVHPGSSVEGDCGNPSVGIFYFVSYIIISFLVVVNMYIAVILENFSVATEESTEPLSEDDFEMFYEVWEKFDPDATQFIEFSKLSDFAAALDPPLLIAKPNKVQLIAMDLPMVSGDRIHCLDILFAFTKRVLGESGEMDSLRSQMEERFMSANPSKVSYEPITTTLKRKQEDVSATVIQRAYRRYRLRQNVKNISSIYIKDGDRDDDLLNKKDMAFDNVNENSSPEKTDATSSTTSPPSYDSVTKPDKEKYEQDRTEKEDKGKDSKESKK

T1 sequence (O75762 whole entry): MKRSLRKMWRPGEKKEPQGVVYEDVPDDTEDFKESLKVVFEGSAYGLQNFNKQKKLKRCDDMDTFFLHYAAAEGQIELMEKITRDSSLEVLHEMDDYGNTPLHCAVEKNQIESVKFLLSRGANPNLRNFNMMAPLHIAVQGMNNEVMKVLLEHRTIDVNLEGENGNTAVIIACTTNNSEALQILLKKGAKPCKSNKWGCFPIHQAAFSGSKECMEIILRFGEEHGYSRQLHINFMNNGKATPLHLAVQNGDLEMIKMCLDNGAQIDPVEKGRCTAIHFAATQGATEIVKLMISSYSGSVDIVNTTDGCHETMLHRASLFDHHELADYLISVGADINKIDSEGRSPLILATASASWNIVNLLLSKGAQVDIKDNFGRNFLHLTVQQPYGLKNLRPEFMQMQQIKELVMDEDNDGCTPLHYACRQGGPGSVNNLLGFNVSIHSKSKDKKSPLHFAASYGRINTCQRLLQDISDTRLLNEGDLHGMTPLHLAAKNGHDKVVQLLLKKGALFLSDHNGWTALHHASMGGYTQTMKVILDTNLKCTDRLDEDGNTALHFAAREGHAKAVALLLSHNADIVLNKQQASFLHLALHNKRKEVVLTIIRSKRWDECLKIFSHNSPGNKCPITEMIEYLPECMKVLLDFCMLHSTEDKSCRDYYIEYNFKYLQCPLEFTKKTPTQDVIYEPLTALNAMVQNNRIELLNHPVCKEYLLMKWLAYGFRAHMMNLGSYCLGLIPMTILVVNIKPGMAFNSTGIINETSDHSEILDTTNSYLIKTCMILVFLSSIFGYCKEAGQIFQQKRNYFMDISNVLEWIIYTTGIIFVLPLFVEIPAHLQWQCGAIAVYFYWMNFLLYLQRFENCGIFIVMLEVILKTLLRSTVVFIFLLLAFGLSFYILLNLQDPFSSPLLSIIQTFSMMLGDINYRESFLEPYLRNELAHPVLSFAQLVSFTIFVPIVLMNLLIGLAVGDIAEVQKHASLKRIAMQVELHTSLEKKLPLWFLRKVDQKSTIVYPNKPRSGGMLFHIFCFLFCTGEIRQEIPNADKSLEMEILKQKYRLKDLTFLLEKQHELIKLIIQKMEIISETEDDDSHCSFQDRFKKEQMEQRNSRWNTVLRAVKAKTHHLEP

In the case of `COc1ccc([C@H]2CC(=O)c3c(O)cc(OC)cc3O2)cc1` [(−)-NRG-DM, (−)-naringenin 4′,7-dimethyl ether], the “painful behaviors (licking time and pain score)” value ([1]; 30 mg/kg i.p. 30 min before 1% formalin) is reported as “only had a significant influence in phase I”, the “painful behaviors (licking time and overall pain score)” value ([1]; 50 mg/kg i.p. 30 min before 1% formalin) is reported as “significantly attenuated painful behaviors” and the “reduction of writhing number” value ([2]; 30 mg/kg i.p.) is reported as “approximately 60%”. For the same compound, the “reduction of writhing number” value ([2]; 50 mg/kg i.p.) was ~80%, the IC50 [3] was 119.9 ± 0.03 µM and the plasma concentration ([4]; 0.5~1.5 h after i.p. injection at 50 mg/kg) was “around 7 µM”. It also gave a concentration at 0.5 h ([4]; male, ICR, mouse, ip, plasma, 50 mg/kg i.p., 0.5 h, mean ± SEM) of 2290 ± 183 ng/mL, a concentration at 1 h ([4]; male, ICR, mouse, ip, plasma, 50 mg/kg i.p., 1 h, mean ± SEM) of 2220 ± 1250 ng/mL and a concentration at 1.5 h ([4]; male, ICR, mouse, ip, plasma, 50 mg/kg i.p., 1.5 h, mean ± SEM) of 717 ± 222 ng/mL. The “Concentration (μM/L)” value ([4]; plasma, 50 mg/kg i.p., 0.5 h, mean ± SEM) was 7.64 ± 0.61 µM, the “Concentration (μM/L)” value ([4]; plasma, 50 mg/kg i.p., 1 h, mean ± SEM) was 7.39 ± 4.17 µM and the “Concentration (μM/L)” value ([4]; plasma, 50 mg/kg i.p., 1.5 h, mean ± SEM) was 2.39 ± 0.74 µM. The “effect on TRPA1 currents and AITC-induced TRPA1 currents” value (TRPA1 channels) was “did not enhance any TRPA1 currents or inhibit AITC-induced TRPA1 currents either”, the inhibitory ratio (Nav1.7 channel; 30 µM) was 39 ± 5% and the IDrug/IControl (Nav1.7 channel; 30 μM, HEK293) was 0.61 ± 0.05. The “selectivity Nav1.7 vs Nav1.8” value (Nav1.7 channel; 30 μM, no significant difference between Nav1.7 and Nav1.8) was “non-selective Nav channel inhibitor”.
